These cell lines were tested with CCn1c(-c2nonc2N)nc2c(C#CC(C)(C)O)ncc(OC[C@H]3CCCNC3)c21 + CC(=O)c1c(C)c2cnc(Nc3ccc(N4CCNCC4)cn3)nc2n(C2CCCC2)c1=O [Palbociclib] (partner 0.5 µM) (assay: relative viability (nuclei count vs DMSO), 5 days (fraction); higher = more cells survive). Details: first compound 0.01 µM.
Method in brief: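 Relative viability divides the nuclei count in treated wells by that in vehicle wells. Lung cancer cell lines were seeded in 1536-well plates, dosed by pin tool the next day, and fixed and stained after 5 days in one step with final 0.05% Triton X-100, 1% formaldehyde and 1 ug/ml Hoechst. Dosing was a single drug or a fixed anchor-drug dose plus five library-drug doses (not always all listed) in √10 steps, and values are medians of duplicate plates imaged at 4×.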

In order of falling relative viability:
1. HCC-44  0.973
2. ChaGo-K-1  0.915
3. NCI-H522  0.9
4. HCC-15  0.76
5. NCI-H2228  0.686
6. NCI-H727  0.667
7. LK-2  0.641
8. LXF-289  0.63
9. NCI-H1666  0.615
10. NCI-H1792  0.607
11. NCI-H1395  0.605
12. PC-14  0.581
13. SW 900  0.558
14. NCI-H1993  0.55
15. NCI-H2342  0.521
16. NCI-H2405  0.52
17. HCC-78  0.519
18. NCI-H1651  0.518
19. LCLC-103H  0.511
20. LOU-NH91  0.511
21. EMC-BAC-2  0.497
22. NCI-H2085  0.49
23. NCI-H1915  0.488
24. BEN  0.481
25. HCC-827  0.473
26. NCI-H322M  0.456
27. NCI-H1755  0.451
28. NCI-H661  0.446
29. NCI-H23  0.44
30. A-427  0.426
31. HOP-62  0.414
32. EKVX  0.411
33. NCI-H1355  0.408
34. SK-LU-1  0.405
35. COR-L 105  0.401
36. NCI-H2347  0.394
37. NCI-H2170  0.391
38. CAL-12T  0.39
39. NCI-H1650  0.382
40. HCC-366  0.378
41. NCI-H1734  0.375
42. LU99A  0.37
43. NCI-H2023  0.357
44. 201T  0.35
45. NCI-H647  0.349
46. SW 1573  0.334
47. NCI-H2126  0.325
48. EPLC-272H  0.32
49. SK-MES-1  0.306
50. HARA  0.303
51. NCI-H1437  0.295
52. NCI-H1793  0.295
53. H3255  0.291
54. NCI-H1648  0.266
55. NCI-H441  0.225
56. COR-L23  0.22
57. NCI-H2087  0.214
58. NCI-H2009  0.202
59. NCI-H838  0.19
60. LCLC-97TM1  0.19
61. NCI-H520  0.185
62. NCI-H3122  0.177
63. NCI-H460  0.146

Same assay, conditions: first compound 0.03162 µM

In order of falling relative viability:
1. NCI-H522  1.12
2. HCC-44  0.939
3. ChaGo-K-1  0.918
4. NCI-H2228  0.752
5. LK-2  0.714
6. HCC-15  0.71
7. NCI-H727  0.695
8. NCI-H1666  0.647
9. NCI-H1993  0.642
10. LXF-289  0.568
11. SW 900  0.557
12. NCI-H2342  0.549
13. NCI-H1915  0.545
14. PC-14  0.543
15. LOU-NH91  0.541
16. NCI-H2405  0.539
17. NCI-H1651  0.528
18. NCI-H1395  0.527
19. NCI-H1755  0.514
20. A-427  0.508
21. HCC-827  0.507
22. EMC-BAC-2  0.506
23. HCC-78  0.487
24. NCI-H23  0.481
25. NCI-H322M  0.48
26. LCLC-103H  0.475
27. BEN  0.475
28. SK-LU-1  0.455
29. LU99A  0.45
30. CAL-12T  0.448
31. NCI-H2347  0.445
32. NCI-H2170  0.441
33. HOP-62  0.436
34. NCI-H2085  0.426
35. HCC-366  0.419
36. EKVX  0.408
37. SW 1573  0.402
38. NCI-H647  0.401
39. NCI-H661  0.399
40. NCI-H2023  0.379
41. 201T  0.378
42. EPLC-272H  0.371
43. COR-L 105  0.37
44. NCI-H1355  0.367
45. HARA  0.344
46. NCI-H1734  0.332
47. NCI-H1793  0.326
48. NCI-H2126  0.319
49. H3255  0.303
50. SK-MES-1  0.298
51. NCI-H1437  0.297
52. NCI-H1650  0.291
53. COR-L23  0.288
54. NCI-H1648  0.272
55. LCLC-97TM1  0.245
56. NCI-H2009  0.223
57. NCI-H838  0.221
58. NCI-H441  0.206
59. NCI-H520  0.2
60. NCI-H3122  0.18
61. NCI-H460  0.0929

Same assay, conditions: first compound 0.1 µM

In order of falling relative viability:
1. NCI-H522  1.22
2. HCC-44  0.964
3. ChaGo-K-1  0.939
4. NCI-H1666  0.645
5. NCI-H1993  0.628
6. LK-2  0.556
7. NCI-H2342  0.551
8. A-427  0.533
9. LOU-NH91  0.527
10. NCI-H727  0.52
11. EMC-BAC-2  0.504
12. LCLC-103H  0.503
13. NCI-H322M  0.487
14. SW 900  0.483
15. NCI-H2085  0.481
16. NCI-H2405  0.472
17. HCC-78  0.454
18. BEN  0.432
19. COR-L 105  0.419
20. NCI-H1650  0.396
21. HCC-366  0.396
22. NCI-H661  0.39
23. LU99A  0.388
24. NCI-H2170  0.378
25. NCI-H2126  0.365
26. H3255  0.345
27. SW 1573  0.326
28. HOP-62  0.308
29. NCI-H1734  0.306
30. SK-MES-1  0.299
31. HARA  0.269
32. NCI-H1648  0.235
33. LCLC-97TM1  0.234
34. NCI-H2009  0.229
35. NCI-H441  0.227
36. COR-L23  0.226
37. NCI-H2087  0.225
38. NCI-H838  0.199
39. NCI-H460  0.18
40. NCI-H520  0.164
